In patent publication US7927581B2, “Peptide-based multimeric targeted contrast agents” (Factor 1A, LLC, priority 2001, dated 2011):
pKd: −log10 of the molar value. Where two headings read alike, the source gives them in different places. Positions of bridges follow the written chain, without caps; N, C: chain ends. Non-standard residues stand in square brackets, D forms with d. Residues, ends and D or L forms follow the SMILES beside them. *: point of attachment. FITC = O=C1OC2(c3ccc(O)cc3Oc3cc(O)ccc32)c2ccc(NC(=S)*)cc21; Tyr(3-I) = N[C@@H](Cc1ccc(O)c(I)c1)C(=O)O; Hyp = O=C(O)[C@@H]1C[C@@H](O)CN1; Ahx = NCCCCCC(=O)O

What was measured:
[1] = Stability in rat liver homogenate; assay type: in vitro ADME; settings: 37° C., LC-MS; for half-life: tissue homogenate
Protocol: Stability was assayed using rat liver homogenate, which contains both intra- and extracellular enzymes and represents a particularly harsh chemical environment for peptide bonds. Freshly prepared rat liver homogenate (630 μL) was placed in a glass test tube and incubated at 37° C. in a water bath for 4 minutes. To the rat liver homogenate at 37° C. was added 70 μL of a 1 mM solution of test compound. At time points 0, 5, 15, 30, and 60 minutes, a 100 μL aliquot of the reaction mixture was removed and mixed with 100 μL of methanol in a microfuge tube to quench the reaction. The quenched reaction mixture was centrifuged for 3 minutes at 10,000 rpm to pellet the precipitated protein. The supernatant was analyzed by LC-MS to quantitate the amount of test compound remaining by comparing the area of the single ion MS peak to that of a series of standards. Half life (T1/2) was determined by plotting log percent signal remaining vs. time. The data were fit using an exponential curve fit, wherein T1/2=In2/slope.

[2] = target: fibrin DD(E) fragment (Homo sapiens, UniProt P02671+P02675+P02679); test: Fibrin DD(E) fragment affinity of optical contrast agents; assay type: binding; settings: for Kd: fluorescein-labeled peptides, read-out: Kd (μM) Vs. DD(E)
fibrin DD(E) fragment, sequence (P02671 124-216): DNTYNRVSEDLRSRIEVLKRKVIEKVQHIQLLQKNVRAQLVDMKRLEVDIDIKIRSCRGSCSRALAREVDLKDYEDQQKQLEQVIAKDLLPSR
fibrin DD(E) fragment, sequence (P02675 164-491): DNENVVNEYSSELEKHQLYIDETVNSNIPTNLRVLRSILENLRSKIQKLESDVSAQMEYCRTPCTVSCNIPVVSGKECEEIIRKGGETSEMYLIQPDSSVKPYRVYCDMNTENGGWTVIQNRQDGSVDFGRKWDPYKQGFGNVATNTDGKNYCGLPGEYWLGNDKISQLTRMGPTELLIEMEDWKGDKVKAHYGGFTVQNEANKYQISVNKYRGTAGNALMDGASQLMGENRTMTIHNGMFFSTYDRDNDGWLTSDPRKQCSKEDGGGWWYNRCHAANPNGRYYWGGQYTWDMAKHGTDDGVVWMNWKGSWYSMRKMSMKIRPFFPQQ
fibrin DD(E) fragment, sequence (P02679 114-432): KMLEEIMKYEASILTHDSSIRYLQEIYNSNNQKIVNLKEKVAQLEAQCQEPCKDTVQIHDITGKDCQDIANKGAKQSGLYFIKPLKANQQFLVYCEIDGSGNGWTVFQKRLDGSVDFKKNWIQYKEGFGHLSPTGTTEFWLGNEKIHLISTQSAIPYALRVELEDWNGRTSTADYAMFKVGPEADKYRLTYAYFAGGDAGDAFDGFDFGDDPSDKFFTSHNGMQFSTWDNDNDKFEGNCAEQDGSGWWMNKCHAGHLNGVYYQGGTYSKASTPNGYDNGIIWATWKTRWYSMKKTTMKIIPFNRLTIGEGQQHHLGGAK
fibrin DD(E) fragment, sequence (P02671 36-97): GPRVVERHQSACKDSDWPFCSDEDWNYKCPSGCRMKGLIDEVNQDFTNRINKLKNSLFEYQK
fibrin DD(E) fragment, sequence (P02675 45-152): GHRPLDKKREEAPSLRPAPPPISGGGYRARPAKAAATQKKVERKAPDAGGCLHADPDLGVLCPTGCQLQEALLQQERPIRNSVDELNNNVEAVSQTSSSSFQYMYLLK
fibrin DD(E) fragment, sequence (P02679 27-88): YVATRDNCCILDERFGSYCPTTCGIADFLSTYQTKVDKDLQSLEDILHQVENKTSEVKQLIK
Protocol: NovaSyn TGR resin (0.20 mmol/g, 100 mg, 20 μmol) was washed with NMP/ether/NMP. The peptide was assembled by the standard solid phase method using the PyBOP/HOBt/DIEA activation. After the coupling of the final amino acid residue, the resin bound peptide was treated with a solution of piperidine in DMF (20% by volume, 2.0 mL) for 10 minutes to remove the Fmoc protecting group. The resin was washed thoroughly with NMP/ether/NMP, and was treated with a solution of fluorascein-5-isothiocyanate (23.4 mg, 60 μmol) and duisopropylethylamine (11.6 mg, 15.7 μL, 90 μmol) in DMF (1.5 mL) for 12 hours. The resin was washed thoroughly (NMP/ether/NMP), and treated with a solution of Tl (TFA)3 (18.7 mg, 34.5 μmol) in DMF (1.5 mL) at 4° C. for three hours. The resin was washed after this treatment, and treated with a cocktail of TFA/TIS/water (95/2.5/2.5, 2.0 mL) for two hours. The crude peptide was precipitated by adding ether to the cleavage cocktail, and purified by preparative HPLC using a Vydac C-18 column. Structures A-N were formed in this manner and their fibrin DD(E) fragment affinities were determined (Table 5).
N-terminal labeling of the peptides with optical probes can modulate the binding affinity of the optical contrast agents. For example, when comparing fluorescein, 4-methoxycoumarin and tetramethylrhodamine derivatives of the peptide (QWECPYGLCWIQ (SEQ ID NO:27); Kd=3 μM) the following Kd's were observed (Table 6): […]

Row | Kd [2] [µM] | Compound | half-life [1] [min] | also measured
1 |  | CC(C)C[C@H](NC(=O)[C@@H]1CSSC[C@H](NC(=O)[C@@H]2CCCN2C(=O)[C@H](CC(C)C)NC(=O)C(CNC(=O)C(CN(CCN(CC(=O)O)CC(=O)O)CC(=O)O)N(CC(=O)O)CC(=O)O)NC(=O)C(CN(CCN(CC(=O)O)CC(=O)O)CC(=O)O)N(CC(=O)O)CC(=O)O)C(=O)N[C@@H](CC(=O)O)C(=O)N[C@@H](Cc2ccc(O)cc2)C(=O)N[C@@H](Cc2ccc(O)cc2)C(=O)NCC(=O)N[C@@H]([C@@H](C)O)C(=O)N1)C(=O)N[C@@H](CC(=O)O)C(=O)NCc1ccc(CNC(=O)C(CNC(=O)C(CN(CCN(CC(=O)O)CC(=O)O)CC(=O)O)N(CC(=O)O)CC(=O)O)NC(=O)C(CN(CCN(CC(=O)O)CC(=O)O)CC(=O)O)N(CC(=O)O)CC(=O)O)cc1 (stereo partly shown) [Compound 5] | 65 | 
2 | 0.097 | CC[C@H](C)[C@H](NC(=O)[C@H](Cc1c[nH]cn1)NC(=O)[C@@H]1CSSC[C@H](NC(=O)[C@H](Cc2c[nH]cn2)NC(=O)[C@H](Cc2ccccc2)NC(=O)CNC(=O)CCCCCNC(=S)Nc2ccc3c(c2)C(=O)OC32c3ccc(O)cc3Oc3cc(O)ccc32)C(=O)N2C[C@H](O)C[C@H]2C(=O)N[C@@H](Cc2ccc(O)c(I)c2)C(=O)N[C@@H](CC(=O)O)C(=O)N[C@@H](CC(C)C)C(=O)N1)C(N)=O [C] ({FITC-Ahx}-GFHC[Hyp][Tyr(3-I)]DLCHI-NH2; disulfide 4-9) |  | 
3 |  | CC(C)C[C@H](NC(=O)[C@@H]1CSSC[C@H](NC(=O)[C@@H]2CCCN2C(=O)[C@@H](N)CC(C)C)C(=O)N[C@@H](CC(=O)O)C(=O)N[C@@H](Cc2ccc(O)cc2)C(=O)N[C@@H](Cc2ccc(O)cc2)C(=O)NCC(=O)N[C@@H](C(C)O)C(=O)N1)C(=O)N[C@@H](CC(=O)O)C(N)=O (stereo partly shown) [Structure 1] |  | half-life at 100 µM [1]: < 2 min
4 |  | C=NOCC(=O)NCCN(CCN(CCNC(=O)CO/N=C/C(=O)N[C@@H](CC(C)C)C(=O)N1CCC[C@H]1C(=O)N[C@H]1CSSC[C@@H](C(=O)N[C@@H](Cc2ccc(-c3ccccc3)cc2)C(=O)N[C@@H](CC(=O)O)C(N)=O)NC(=O)[C@H]([C@@H](C)O)NC(=O)CNC(=O)[C@H](Cc2ccc(O)cc2)NC(=O)[C@H](Cc2ccc(O)cc2)NC(=O)[C@H](CC(=O)O)NC1=O)C(=O)C(CNC(=O)CN(CCN(CCN(CC(=O)O)CC(=O)O)CC(=O)O)CC(=O)O)NC(=O)CN(CCN(CCN(CC(=O)O)CC(=O)O)CC(=O)O)CC(=O)O)C(=O)C(CNC(=O)CN(CCN(CCN(CC(=O)O)CC(=O)O)CC(=O)O)CC(=O)O)NC(=O)CN(CCN(CCN(CC(=O)O)CC(=O)O)CC(=O)O)CC(=O)O (stereo partly shown) [Structure 2] | 10 | 
5 | 0.06 | CC[C@H](C)[C@H](NC(=O)[C@H](Cc1c[nH]cn1)NC(=O)[C@@H]1CSSC[C@H](NC(=O)[C@H](Cc2c[nH]cn2)NC(=O)[C@H](Cc2ccccc2)NC(=O)[C@H](Cc2c[nH]c3ccccc23)NC(=S)Nc2ccc3c(c2)C(=O)OC32c3ccc(O)cc3Oc3cc(O)ccc32)C(=O)N2CCC[C@H]2C(=O)N[C@@H](Cc2ccc(O)cc2)C(=O)N[C@@H](CC(=O)O)C(=O)N[C@@H](CC(C)C)C(=O)N1)C(=O)N[C@@H](CC(C)C)C(N)=O [Compound K] (HELM PEPTIDE1{[O=C1OC2(c3ccc(O)cc3Oc3cc(O)ccc32)c2ccc(NC(=S)[*:2])cc21].W.F.H.C.P.Y.D.L.C.H.I.L.[am]}$PEPTIDE1,PEPTIDE1,5:R3-10:R3$$$V2.0) |  | 
6 |  | CC(C)C[C@H](NC(=O)[C@@H]1CSSC[C@H](NC(=O)[C@@H]2CCCN2C(=O)[C@H](CC(C)C)NC(=O)c2ccc(-c3ccccc3)cc2)C(=O)N[C@@H](CC(=O)O)C(=O)N[C@@H](Cc2ccc(O)cc2)C(=O)N[C@@H](Cc2ccc(O)cc2)C(=O)NCC(=O)N[C@@H]([C@@H](C)O)C(=O)N1)C(=O)N[C@@H](CC(=O)O)C(=O)NCCN(CCN(CCN)C(=O)C(CNC(=O)CN(CCN(CCN(CC(=O)O)CC(=O)O)CC(=O)O)CC(=O)O)NC(=O)CN(CCN(CCN(CC(=O)O)CC(=O)O)CC(=O)O)CC(=O)O)C(=O)C(CNC(=O)CN(CCN(CCN(CC(=O)O)CC(=O)O)CC(=O)O)CC(=O)O)NC(=O)CN(CCN(CCN(CC(=O)O)CC(=O)O)CC(=O)O)CC(=O)O (stereo partly shown) [Structure 3] | 9 | 
7 | 0.09 | CC[C@H](C)[C@H](NC(=O)[C@H](Cc1c[nH]cn1)NC(=O)[C@@H]1CSSC[C@H](NC(=O)[C@H](Cc2c[nH]cn2)NC(=O)[C@H](Cc2ccccc2)NC(=O)CNC(=O)CNC(=O)CCCCCNC(=S)Nc2ccc3c(c2)C(=O)OC32c3ccc(O)cc3Oc3cc(O)ccc32)C(=O)N2C[C@H](O)C[C@H]2C(=O)N[C@@H](Cc2ccc(O)c(I)c2)C(=O)N[C@@H](CC(=O)O)C(=O)N[C@@H](CC(C)C)C(=O)N1)C(N)=O [E] ({FITC-Ahx}-GGFHC[Hyp][Tyr(3-I)]DLCHI-NH2; disulfide 5-10) |  | 
8 | 0.055 | CC[C@H](C)[C@H](NC(=O)[C@H](Cc1c[nH]c2ccccc12)NC(=O)[C@@H]1CSSC[C@H](NC(=O)[C@H](CCC(=O)O)NC(=O)[C@H](Cc2c[nH]c3ccccc23)NC(=O)[C@H](CCC(N)=O)NC(=S)Nc2ccc3c(c2)C(=O)OC32c3ccc(O)cc3Oc3cc(O)ccc32)C(=O)N2CCC[C@H]2C(=O)N[C@@H](Cc2ccc(O)cc2)C(=O)NCC(=O)N[C@@H](CC(C)C)C(=O)N1)C(=O)N[C@@H](CCC(N)=O)C(N)=O [J] (HELM PEPTIDE1{[O=C1OC2(c3ccc(O)cc3Oc3cc(O)ccc32)c2ccc(NC(=S)[*:2])cc21].Q.W.E.C.P.Y.G.L.C.W.I.Q.[am]}$PEPTIDE1,PEPTIDE1,5:R3-10:R3$$$V2.0) |  | pKd ([2]; fluorophore derivatives of QWECPYGLCWIQ, no unit in Table 6, read-out: Kd): 7.22
9 | 0.061 | CC[C@H](C)[C@H](NC(=O)[C@H](Cc1c[nH]cn1)NC(=O)[C@@H]1CSSC[C@H](NC(=O)[C@H](Cc2c[nH]cn2)NC(=O)[C@H](Cc2ccccc2)NC(=O)[C@H](Cc2c[nH]c3ccccc23)NC(=O)CCCCCNC(=S)Nc2ccc3c(c2)C(=O)OC32c3ccc(O)cc3Oc3cc(O)ccc32)C(=O)N2C[C@H](O)C[C@H]2C(=O)N[C@@H](Cc2ccc(O)c(I)c2)C(=O)N[C@@H](CC(=O)O)C(=O)N[C@@H](CC(C)C)C(=O)N1)C(N)=O [D] ({FITC-Ahx}-WFHC[Hyp][Tyr(3-I)]DLCHI-NH2; disulfide 4-9) |  | 
